# ChEMBL document CHEMBL1201862, “PubChem BioAssay data set” (2004)
#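 Growth conditions: 96-well plates. Treatment: test compound, 48 hours, 5 concentrations. Analysis: linear interpolation between bracketing concentrations; unreached endpoints set to highest concentration. At the GI50, growth is halved.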 Active and inactive are the calls of the source. Cut-off read from the data, not from the text of the source: active = GI50 up to about 1.1 µM and inactive = higher.
# Tests used:
# Experiment in all cases: growth of human tumour cells (NCI), 48 h
# ACHN = tested on: ACHN
# HT-29 = tested on: HT-29
# SF-268 = tested on: SF-268
# M14 = tested on: M14
# Hs-578T = tested on: Hs-578T
# 786-0 = tested on: 786-0
# UACC-257 = tested on: UACC-257
# OVCAR-4 = tested on: OVCAR-4
# NCI-H460 = tested on: NCI-H460
# NCI-H23 = tested on: NCI-H23
# OVCAR-5 = tested on: OVCAR-5
# TK-10 = tested on: TK-10
# OVCAR-8 = tested on: OVCAR-8
# A498 = tested on: A498
# CAKI-1 = tested on: CAKI-1
# MDA-N = tested on: MDA-N
# SK-MEL-5 = tested on: SK-MEL-5
# K562 = tested on: K562
# KM12 = tested on: KM12
# MCF7 = tested on: MCF7
# DU-145 = tested on: DU-145
# MOLT-4 = tested on: MOLT-4
# UO-31 = tested on: UO-31
# COLO 205 = tested on: COLO 205
# SW-620 = tested on: SW-620
# HCC 2998 = tested on: HCC 2998
# CCRF-CEM = tested on: CCRF-CEM
# A549 = tested on: A549
# SK-OV-3 = tested on: SK-OV-3
# SNB-19 = tested on: SNB-19
# SF-295 = tested on: SF-295
# UACC-62 = tested on: UACC-62
# SN12C = tested on: SN12C
# NCI-H522 = tested on: NCI-H522
# BT-549 = tested on: BT-549
# NCI/ADR-RES = tested on: NCI/ADR-RES
# SR = tested on: SR
# HOP-62 = tested on: HOP-62
# U-251 = tested on: U-251
# PC-3 = tested on: PC-3
# HCT-15 = tested on: HCT-15
# NCI-H226 = tested on: NCI-H226
# HCT-116 = tested on: HCT-116
# EKVX = tested on: EKVX
# OVCAR-3 = tested on: OVCAR-3
# IGROV-1 = tested on: IGROV-1
# T47D = tested on: T47D
# SNB-75 = tested on: SNB-75
# MDA-MB-231 = tested on: MDA-MB-231
# SK-MEL-28 = tested on: SK-MEL-28
# HL-60 = tested on: HL-60
# SF-539 = tested on: SF-539
structure (smiles),measurement,setting,value
O/N=N/c1ccc(Sc2ccc(/N=N/O)cn2)nc1,GI50,ACHN,> 100 µM (inactive)
same,GI50,HT-29,> 100 µM (inactive)
same,GI50,SF-268,> 100 µM (inactive)
same,GI50,M14,> 100 µM (inactive)
same,GI50,Hs-578T,> 100 µM (inactive)
same,GI50,786-0,> 100 µM (inactive)
same,GI50,UACC-257,> 100 µM (inactive)
same,GI50,OVCAR-4,> 100 µM (inactive)
same,GI50,NCI-H460,> 100 µM (inactive)
same,GI50,NCI-H23,> 100 µM (inactive)
same,GI50,OVCAR-5,> 100 µM (inactive)
same,GI50,TK-10,> 100 µM (inactive)
same,GI50,OVCAR-8,> 100 µM (inactive)
same,GI50,A498,> 100 µM (inactive)
same,GI50,CAKI-1,> 100 µM (inactive)
same,GI50,MDA-N,> 100 µM (inactive)
same,GI50,SK-MEL-5,> 100 µM (inactive)
same,GI50,K562,> 100 µM (inactive)
same,GI50,KM12,> 100 µM (inactive)
same,GI50,MCF7,> 100 µM (inactive)
same,GI50,DU-145,> 100 µM (inactive)
same,GI50,MOLT-4,> 100 µM (inactive)
same,GI50,UO-31,46.8 µM (inactive)
same,GI50,COLO 205,> 100 µM (inactive)
same,GI50,SW-620,> 100 µM (inactive)
same,GI50,HCC 2998,> 100 µM (inactive)
same,GI50,CCRF-CEM,> 100 µM (inactive)
same,GI50,A549,> 100 µM (inactive)
same,GI50,SK-OV-3,> 100 µM (inactive)
same,GI50,SNB-19,> 100 µM (inactive)
same,GI50,SF-295,> 100 µM (inactive)
same,GI50,UACC-62,> 100 µM (inactive)
same,GI50,SN12C,> 100 µM (inactive)
same,GI50,NCI-H522,> 100 µM (inactive)
same,GI50,BT-549,> 100 µM (inactive)
same,GI50,NCI/ADR-RES,> 100 µM (inactive)
same,GI50,SR,> 100 µM (inactive)
same,GI50,HOP-62,> 100 µM (inactive)
same,GI50,U-251,> 100 µM (inactive)
same,GI50,PC-3,> 100 µM (inactive)
same,GI50,HCT-15,> 100 µM
same,GI50,NCI-H226,> 100 µM (inactive)
same,GI50,HCT-116,> 100 µM (inactive)
same,GI50,EKVX,> 100 µM (inactive)
same,GI50,OVCAR-3,> 100 µM (inactive)
same,GI50,IGROV-1,> 100 µM (inactive)
same,GI50,T47D,> 100 µM (inactive)
same,GI50,SNB-75,> 100 µM (inactive)
same,GI50,MDA-MB-231,> 100 µM (inactive)
same,GI50,SK-MEL-28,> 100 µM (inactive)
same,GI50,HL-60,> 100 µM (inactive)
same,GI50,SF-539,> 100 µM (inactive)
